According to ChEMBL document CHEMBL1201862, “PubChem BioAssay data set” (2004):
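A five-concentration, 48-hour dose response in 96-well plates underlies each endpoint, interpolated linearly between surrounding concentrations. Here, GI50 denotes the concentration required for 50% inhibition of growth.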 Activity calls are given as the source filed them. Cut-off read from the data, not from the text of the source: active = GI50 up to about 1.1 µM and inactive = higher. Where a SMILES comes first, the peptide text is derived from it. Bridges are numbered along the chain shown (N, C = ends). The star is where a group is joined. Cbz = O=C(OCc1ccccc1)*

Columns and labels:
Assay in all cases: NCI-60 cell line screen, 48 h
T47D = test system: T47D
SK-MEL-5 = test system: SK-MEL-5
LOX IMVI = test system: LOX IMVI
HT-29 = test system: HT-29
U-251 = test system: U-251
MDA-MB-435 = test system: MDA-MB-435
KM12 = test system: KM12
MCF7 = test system: MCF7
EKVX = test system: EKVX
UACC-257 = test system: UACC-257
PC-3 = test system: PC-3
SK-MEL-28 = test system: SK-MEL-28
SW-620 = test system: SW-620
NCI-H23 = test system: NCI-H23
SK-OV-3 = test system: SK-OV-3
SR = test system: SR
SF-268 = test system: SF-268
A498 = test system: A498
SN12C = test system: SN12C
DU-145 = test system: DU-145

Measured: GI50

COc1cc(/C=N\O)cc(/C=N/O)c1O
inactive: T47D 26.4 µM | SK-MEL-5 40 µM | LOX IMVI 40.9 µM | HT-29 39.4 µM | U-251 37.9 µM | MDA-MB-435 40 µM | KM12 > 100 µM | MCF7 60.8 µM | EKVX 60.3 µM | UACC-257 74 µM | PC-3 28.9 µM | SK-MEL-28 38.5 µM | SW-620 73.1 µM | NCI-H23 > 100 µM | SK-OV-3 30.3 µM | SR 26.3 µM | SF-268 35.7 µM | A498 43.8 µM | SN12C 31 µM | DU-145 > 100 µM

COC(=O)C1CCCCNC(=O)CCC(NC(=O)OCc2ccccc2)C(=O)N1 (stereo not drawn) (Cbz-Glu-Lys-OMe; lactam 1-2; configuration not given here)
inactive: T47D > 100 µM | SK-MEL-5 > 100 µM | LOX IMVI > 100 µM | HT-29 > 100 µM | U-251 39.3 µM | MDA-MB-435 > 100 µM | KM12 > 100 µM | MCF7 > 100 µM | EKVX > 100 µM | UACC-257 > 100 µM | PC-3 > 100 µM | SK-MEL-28 > 100 µM | SW-620 > 100 µM | NCI-H23 > 100 µM | SK-OV-3 56.1 µM | SR > 100 µM | SF-268 56.1 µM | A498 > 100 µM | SN12C > 100 µM | DU-145 > 100 µM

c1ccc2c(Cc3c[nH]c4ccccc34)c[nH]c2c1 [ARUNDINE]
inactive: T47D 15.8 µM | SK-MEL-5 13.7 µM | LOX IMVI 20.3 µM | HT-29 15.2 µM | U-251 17.7 µM | MDA-MB-435 15.6 µM | KM12 19.1 µM | MCF7 > 100 µM | EKVX 14.4 µM | UACC-257 18.5 µM | PC-3 18.2 µM | SK-MEL-28 36 µM | SW-620 20.1 µM | NCI-H23 13.3 µM | SK-OV-3 23.7 µM | SR 12.4 µM | SF-268 28.1 µM | A498 38.8 µM | SN12C 16.6 µM | DU-145 18.2 µM
